{"source": "patent US6096711A", "about": "“Hsp72 induction and applications” (priority 1998, dated 2000)", "key": {"Hsp72 [1]": {"test_system": "Hsp72", "assay": "Hsp72 induction in U937 cells", "type": "cell-based, human", "design": "accumulation of Hsp72: dose or concentration left out as unconfirmed", "conditions": "for levels of Hsp72: incubation of U937 cells with the compound", "description": "(§1) U937 human lymphoid tumor cells were grown in RPMI-1640 medium with 10% fetal bovine serum and were used for experiments while in the mid log-phase (3-7.105 cells/ml). 293 human cells were grown in DMEM medium with 10% fetal bovine serum and were used in transient transfection experiments while at 40% of confluence. MG132 was purchased from Biomol Res Lab, Inc, PA. aLLN was purchased from Sigma, MO. MG132 analogs were synthesized and purified by HPLC. Anti-hsp72 antibody (SPA810) was from StressGene Biotechnologies Corp (Canada), anti-p53 antibody (PAb1801) was from SantaCruz Biotechnology, Inc, Calif."}, "[2]": {"test_system": "U937 human lymphoid tumor cells", "assay": "Apoptosis / cell death of U937 cells", "type": "cell-based", "design": "induction of apoptosis by the compound itself: dose or concentration left out as unconfirmed", "description": "as §1\nPARP degradation was followed by Western blotting with anti-PARP monoclonal antibodies (C2-10, G. Poirier, Montreal, Canada). Apoptosis of 293 cells was detected by cleavage of a truncated form of Ul-70 kDa protein d12 (Romac, J. M. J. et al., Mol Cell Biol 14: 4662-4670 (1994)). Cells were transfected by calcium phosphate method with a plasmid encoding d12 tagged with T7 epitope alone or together with a dominant-negative mutant forms of SEK1 (K/R) or c-jun (TAM67). After 48 hours cells were either treated with […] MG132 or subjected to heat shock at 45° C. for 15 min. After additional 24 hours cells were lysed and cleavage of d12 was detected by Western blot with anti-T7 epitope antibody."}, "JNK [3]": {"test_system": "JNK", "assay": "JNK assay in U937 cells", "type": "cell-based, human", "design": "JNK activation by the compound itself: dose or concentration left out as unconfirmed", "description": "as §1\nJNK activity was assayed using GST-c-Jun protein as a substrate after immunoprecipitation with anti-JNK1 antibodies (sc-474, Santa Cruz Biotechnology, Inc., Calif.), or anti-HA antibody for transfected JNK (Berkley Antibody Company). Briefly, cells were lysed in a buffer containing 20 mM Tris-HCl, pH 7.4, 50 mM NaCl, 2 mM EDTA, 1% Triton X-100, 25 mM b-glycerophosphate, 10 mM NaF, 1 mM Na3VO4, and protease inhibitors (1 mM PMSF and 25 mg/ml each of aprotenin, pepstatin, leupeptin). After immunoprecipitation with anti-JNK1 or anti-HA antibody and protein A-sepharose for 2 h at 4° C. and washing, kinase reaction was carried out in a buffer containing 25 mM HEPES, 10 mM MgCl2, 2 mM DTT, 25 mM b-glycerophosphate, 2 mM Na3 VO4 and 25 mCi 32P-g-ATP at 37° C. for 10 min. Samples were then subjected to SDS-PAGE followed by transfer to a nitrocellulose membrane and autoradiography. This membrane was later used for immunoblot with anti-JNK1 antibody to ensure that equal amounts of the kinase were immunoprecipitated. p38 kinase activity was determined by Western blot with polyclonal antibody (New England Biolabs, MA) specifically recognizing the phosphorylated (active) form of p38. Later the same blot was treated with anti-p38 antibody (New England Biolabs, Mass.) to assure equal loading of the kinase on different lanes."}, "[4]": {"test_system": "Human lung fibroblasts IMR90", "assay": "Heat-induced apoptosis in IMR90 cells", "type": "cell-based", "conditions": "young and old IMR90 cells pretreated with MG132", "description": "(§2) Young and old cells were incubated with either […] of MG132 for 5 hours, washed with PBS and incubated in a fresh medium for an additional 12 hours.\nYoung and old cells were subjected to heat shock at 45° C. for different time periods followed by incubation at 37° C. After 24 hours cells were stained with Hoechst 33342 according to manufacturer's specifications."}, "JNK [5]": {"test_system": "JNK", "assay": "JNK activation by heat shock in IMR90 cells pretreated with MG132", "type": "cell-based, Human", "description": "as §2\nJNK activity was assayed using GST-c-Jun protein as a substrate after immunoprecipitation with anti-JNK1 antibodies (sc-474, Santa Cruz Biotechnology, Inc., CA). Briefly, cells were lysed in a buffer containing 20 mm Tris-HCl, pH 7.4, 50 mm NaCl, 2 mm EDTA, 1% Triton X-100, 25 mm b-glycerophosphate, 10 mm NaF, 1 mm Na3VO4, and protease inhibitors (1 mm PMSF and 25 mg/ml each of aprotenin, pepstatin, leupeptin). After immunoprecipitation with anti-JNK1 antibody and protein A-sepharose for 2 h at 4° C. and washing, kinase reaction was carried out in a buffer containing 25 mm HEPES, 10 mm MgCl2, 2 mm DTT, 25 mm b-glycerophosphate, 2 mm Na3VO4 and 25 mCi 32P-g-ATP at 37° C. for 10 min. Then the samples were subjected to SDS-PAGE followed by transfer to a nitrocellulose membrane and autoradiography. This membrane was later used for immunoblot with anti-JNK1 antibody to ensure that equal amounts of the kinase were immunoprecipitated."}, "Hsp40": {"test_system": "Hsp40", "assay": "Hsp40 induction in U937 cells", "type": "cell-based, human", "conditions": "incubation of U937 cells with MG132", "description": "as §1"}, "Hsp72 [6]": {"test_system": "Hsp72", "assay": "Hsp72 induction in young and old IMR90 cells", "type": "cell-based, Human", "conditions": "compared with mild heat shock of young cells", "description": "Human lung fibroblasts IMR90 which underwent either 12-17 divisions (\"young\" cells) or 62-67 divisions (\"old\" cells) were grown in MEM medium supplemented with 20% bovine fetal serum and 2mM glutamine. The cells were seeded at a density of 1.105 cells/35 mm plate and grown at 37° C. in an atmosphere of 95% air and 5% CO2. Cultures were split when cell density reached confluency. MG132 was purchased from Biomol Res Lab, Inc, PA. Anti-Hsp72 antibody (SPA810) was from StressGene Biotechnologies Corp (Canada).\nas §2"}, "Hsp27": {"test_system": "Hsp27", "assay": "Hsp27 induction in U937 cells", "type": "cell-based, human", "conditions": "incubation of U937 cells with MG132", "description": "as §1"}, "[7]": {"test_system": "chymotrypsin-like activity of the proteasome", "conditions": "cited from earlier work; for Ki: slow binding inhibitors, Vinitsky et al."}}, "note": "Non-standard residues stand in square brackets, D forms with d. Residues, ends and D or L forms follow the SMILES beside them. *: point of attachment. Nle = CCCC[C@H](N)C(=O)O; Cbz = O=C(OCc1ccccc1)*"}
{"smiles": "CC(C)C[C@@H](C=O)NC(=O)[C@H](CC(C)C)NC(=O)[C@H](CC(C)C)NC(=O)OCc1ccccc1", "note": "[MG132] (Cbz-Leu-Leu-Leu-aldehyde)", "values": [{"measurement": "accumulation of Hsp72", "setting": "Hsp72 [1]; after several hours of recovery", "result": "strong accumulation of Hsp72"}, {"measurement": "levels of Hsp72", "setting": "Hsp72 [1]", "result": "dramatically increase"}, {"measurement": "induction of apoptosis by the compound itself", "setting": "[2]; followed by withdrawal", "result": "insufficient to induce apoptosis"}, {"measurement": "effect of long incubation on JNK and apoptosis", "setting": "[2]; long incubation of U937 cells", "result": "prolonged activation of JNK leading to apoptosis"}, {"measurement": "TNF-induced apoptosis", "setting": "[2]; pretreatment with MG132", "result": "did not rescue cells from TNF-induced apoptosis and even potentiated it"}, {"measurement": "cell death caused by ethanol", "setting": "[2]; pretreatment with MG132", "result": "suppressed cell death caused by ethanol"}, {"measurement": "extent of cell death after heat shock", "setting": "[2]; pretreatment with MG132, about 40% without pretreatment", "result": "negligible level"}, {"measurement": "JNK activation by the compound itself", "setting": "JNK [3]; followed by withdrawal", "result": "activated JNK only temporally"}, {"measurement": "JNK activation by severe heat shock", "setting": "JNK [3]; pretreated versus untreated U937 cells", "result": "much lesser activation"}, {"measurement": "activation of JNK by TNF", "setting": "JNK [3]; pretreatment with MG132", "result": "strongly suppressed"}, {"measurement": "activation of JNK by ethanol", "setting": "JNK [3]; pretreatment with MG132", "result": "strongly suppressed"}, {"measurement": "protection from heat-induced apoptosis", "setting": "[4]", "result": "protected from apoptosis"}, {"measurement": "JNK activation by heat shock of various severity", "setting": "JNK [5]", "result": "strongly suppressed in both young and old cells"}, {"measurement": "induction of Hsp40", "setting": "Hsp40", "result": "appeared to be induced"}, {"measurement": "Hsp72 levels induced", "setting": "Hsp72 [6]", "result": "exceeded those triggered in young cells by a mild heat shock"}, {"measurement": "induction of Hsp27", "setting": "Hsp27", "result": "appeared to be induced"}]}
{"smiles": "CC(C)CC(C=CS(C)(=O)=O)NC(=O)C(CC(C)C)NC(=O)C(CC(C)C)NC(=O)Cc1cc(I)c(O)c([N+](=O)[O-])c1", "note": "(centres unmarked) [NIP-L3VS]", "values": [{"measurement": "levels of Hsp72", "setting": "Hsp72 [1]", "result": "dramatically increase"}]}
{"smiles": "CC(C)C[C@@H](C=O)NC(=O)CNC(=O)CNC(=O)OCc1ccccc1", "note": "[Z-Gly-Gly-Leu-H] (Cbz-Gly-Gly-Leu-aldehyde)", "values": [{"measurement": "inhibition of the chymotrypsin-like activity of the proteasome", "setting": "[7]; Orlowski 1990", "result": "inhibits the chymotrypsin-like activity of the proteasome"}]}
{"smiles": "CC(C)C[C@H](NC(=O)OCc1ccccc1)C(=O)N[C@@H](CC(C)C)C(=O)N[C@H](C=O)Cc1ccccc1", "note": "[Z-LLF-H, (benzyloxycarbonyl)-Leu-Leu-phenylalaninal] (Cbz-Leu-Leu-Phe-aldehyde)", "values": [{"measurement": "Ki", "setting": "[7]", "result": 0.46, "unit": "µM"}]}
{"smiles": "CC(C)C[C@H](NC(=O)[C@H](CC(C)C)NC(=O)[C@H](CC(C)C)NC(=O)OCc1ccccc1)C(N)=O", "note": "[Z-LLL-amide] (Cbz-Leu-Leu-Leu-NH2)", "values": [{"measurement": "levels of Hsp72", "setting": "Hsp72 [1]", "result": "did not lead to any significant induction"}]}
{"smiles": "CCOC(=O)C(=O)[C@H](Cc1ccccc1)NC(=O)[C@H](CC(C)C)NC(=O)[C@H](CC(C)C)NC(=O)OCc1ccccc1", "note": "[Z-Leu-Leu-Phe-COOEt]", "values": [{"measurement": "Ki", "setting": "[7]", "result": 53, "unit": "µM"}]}
{"smiles": "CCCC[C@@H](C=O)NC(=O)[C@H](CC(C)C)NC(=O)[C@H](CC(C)C)NC(C)=O", "note": "[aLLN] (Ac-Leu-Leu-[Nle]-aldehyde)", "values": [{"measurement": "levels of Hsp72", "setting": "Hsp72 [1]", "result": "dramatically increase"}]}
{"smiles": "CC(C)[C@H](O)[C@@]12NC(=O)[C@H](C)[C@@H]1OC2=O", "note": "[lactacystin-β-lacton]", "values": [{"measurement": "levels of Hsp72", "setting": "Hsp72 [1]", "result": "dramatically increase"}]}
